US20240409556A1, “BENZOPIPERAZINE AND RELATED ANALOGS FOR INHIBITING YAP/TAZ-TEAD” (Springworks Therapeutics, Inc., priority 2023, published 2024)
pIC50: −log10 of the molar value.

Test system: YAP/TAZ-TEAD transcription
Test: Reporter gene assay for measuring the inhibition of YAP/TAZ-TEAD transcription (TEAD-responsive element luciferase reporter in Hek293T cells)
Format: cell-based
Conditions: 24 hours incubation
Protocol: Example 56: Activity of Compounds of the Disclosure in a Reporter Gene Assay for Measuring the Inhibition of YAP/TAZ-TEAD Transcription
Hek293T cells were cultured in DMEM supplemented with 10% fetal bovine serum, Sodium pyruvate, Sodium bicarbonate, L-glutamine. The cells were harvested and transiently transfected with TEAD-responsive element luciferase reporter. Transfected cells were plated in 384-well plate containing pre-diluted compounds. After 24 hours incubation at 37° C./5% CO2, assay plates were cooled to room temperature and levelled to an equal volume per well, prior to the addition of 25 uL luciferase substrate SteadyLite (Perkin Elmer)/well. The plate was shaken for 10 min at 600 rpm, centrifuged for 1 min at 500 rpm and measured with an Envision reader (PerkinElmer). The amount of relative light units produced by the TEAD reporter was used to calculate the percentage of inhibition.
The percent of reporter inhibition was calculated in the presence of a positive control inhibitor (100% inhibition) versus a condition with the presence of the vehicle basal activity of the reporter (0% inhibition). The ability of a test compound to inhibit this activity was determined as: Percentage inhibition=[[…]((RLU determined in the presence of vehicle−RLU determined for sample with test compound present) divided by (RLU determined in the presence of vehicle−RLU determined for sample with positive control inhibitor))]*100.
The activities of example compounds tested are depicted in Table 3. The activity ranges A, B and C refer to IC50 values in the reporter gene assay as follows: “A”: IC50<1 μM; “B”: 1 μM≤IC50≤10 μM and “C”: IC50>10 μM; NT=not tested.

pIC50	pIC50 (Homo sapiens, HEK-293T, 24 h)	SMILES
5.00 to 6.00		CC(=O)N1CCN2c3ccccc3N(c3ccc(C(F)(F)F)cc3)CC2C1 (single isomer, unassigned) [15-En1, (R)- or (S)-1-(6-(4-(trifluoromethyl)phenyl)-1,2,4,4a,5,6-hexahydro-3H-pyrazino[1,2-a]quinoxalin-3-yl)ethan-1-one]
> 6.00		CC(=O)N1CCN2c3ncccc3N(c3ccc(C(F)(F)F)cc3)CC2C1 (single isomer, unassigned) [29-En2, (R)- or (S)-1-(5-(4-(trifluoromethyl)phenyl)-5,6,6a,7,9,10-hexahydro-8H-pyrazino[1,2-a]pyrido[3,2-e]pyrazin-8-yl)ethan-1-one]
> 6.00		CNS(=O)(=O)N1CCN2c3ccccc3N(c3ccc(C(F)(F)F)cc3)CC2C1 (single isomer, unassigned) [32-En1, (R)- or (S)-N-methyl-6-(4-(trifluoromethyl)phenyl)-1,2,4,4a,5,6-hexahydro-3H-pyrazino[1,2-a]quinoxaline-3-sulfonamide]
> 6.00		CC(=O)NCC1CN(c2ccc(C(F)(F)F)cc2)c2ccccc2N1 (single isomer, unassigned) [34-En1, (R)- or (S)-N-((4-(4-(trifluoromethyl)phenyl)-1,2,3,4-tetrahydroquinoxalin-2-yl)methyl)acetamide]
> 6.00		CC(=O)NCC1CN(c2ccc(C(F)(F)F)cc2)c2ccccc2O1 (single isomer, unassigned) [36-En2, (R)- or (S)-N-((4-(4-(trifluoromethyl)phenyl)-3,4-dihydro-2H-benzo[b][1,4]oxazin-2-yl)methyl)acetamide]
5.00 to 6.00		CC(=O)N1CCN2c3nccnc3N(c3ccc(C(F)(F)F)cc3)CC2C1 (single isomer, unassigned) [40-En2, (R)- or (S)-1-(5-(4-(trifluoromethyl)phenyl)-5,6,6a,7,9,10-hexahydro-8H-dipyrazino[1,2-a:2′,3′-e]pyrazin-8-yl)ethan-1-one]
> 6.00		CNS(=O)(=O)N1CCN2c3ncccc3N(c3ccc(C(F)(F)F)cc3)CC2C1 (single isomer, unassigned) [45-En1, (R)- or (S)-N-methyl-5-(4-(trifluoromethyl)phenyl)-5,6,6a,7,9,10-hexahydro-8H-pyrazino[1,2-a]pyrido[3,2-e]pyrazine-8-sulfonamide]
> 6.00		CC(C)C(=O)N1CCN2c3ncccc3N(c3ccc(C(F)(F)F)cc3)CC2C1 (single isomer, unassigned) [47-En2, (R)- or (S)-2-methyl-1-(5-(4-(trifluoromethyl)phenyl)-5,6,6a,7,9,10-hexahydro-8H-pyrazino[1,2-a]pyrido[3,2-e]pyrazin-8-yl)propan-1-one]
5.00 to 6.00		CC(=O)NCC1CN(c2ccc(C(F)(F)F)cc2)c2cccnc2O1 (single isomer, unassigned) [49-En2, (R)- or (S)-N-((1-(4-(trifluoromethyl)phenyl)-2,3-dihydro-1H-pyrido[2,3-b][1,4]oxazin-3-yl)methyl)acetamide]
> 6.00		CNC(=O)N1CCN2c3ncccc3N(c3ccc(C(F)(F)F)cc3)CC2C1 (single isomer, unassigned) [52-En1, (R)- or (S)-N-methyl-5-(4-(trifluoromethyl)phenyl)-5,6,6a,7,9,10-hexahydro-8H-pyrazino[1,2-a]pyrido[3,2-e]pyrazine-8-carboxamide]
< 5.00		COc1ccc2c(n1)OC(CNC(C)=O)CN2c1ccc(C(F)(F)F)cc1 (single isomer, unassigned) [73-En1, (R)- or (S)-N-((6-methoxy-1-(4-(trifluoromethyl)phenyl)-2,3-dihydro-1H-pyrido[2,3-b][1,4]oxazin-3-yl)methyl)acetamide]
> 6.00		COc1ccc2c(n1)OC(CNC(C)=O)CN2c1ccc(C(F)(F)F)cc1 (single isomer, unassigned) [73-En2, (R)- or (S)-N-((6-methoxy-1-(4-(trifluoromethyl)phenyl)-2,3-dihydro-1H-pyrido[2,3-b][1,4]oxazin-3-yl)methyl)acetamide]
< 5.00		CC(=O)NCC1CN(c2ccc(C(F)(F)F)cc2)c2cc(Cl)cnc2O1 (single isomer, unassigned) [75-En1, (R)- or (S)-N-((7-chloro-1-(4-(trifluoromethyl)phenyl)-2,3-dihydro-1H-pyrido[2,3-b][1,4]oxazin-3-yl)methyl)acetamide]
> 6.00		CC(=O)NCC1CN(c2ccc(C(F)(F)F)cc2)c2ccc(C)nc2O1 (single isomer, unassigned) [77-En2, (R)- or (S)-N-((6-methyl-1-(4-(trifluoromethyl)phenyl)-2,3-dihydro-1H-pyrido[2,3-b][1,4]oxazin-3-yl)methyl)acetamide]
< 5.00		CC(=O)N1CC(=O)N2c3ccccc3N(c3ccc(C(F)(F)F)cc3)CC2C1 (single isomer, unassigned) [79-En1, (R)- or (S)-3-acetyl-6-(4-(trifluoromethyl)phenyl)-2,3,4,4a,5,6-hexahydro-1H-pyrazino[1,2-a]quinoxalin-1-one]
> 6.00		CC(=O)N1CC(=O)N2c3ccccc3N(c3ccc(C(F)(F)F)cc3)CC2C1 (single isomer, unassigned) [79-En2, (R)- or (S)-3-acetyl-6-(4-(trifluoromethyl)phenyl)-2,3,4,4a,5,6-hexahydro-1H-pyrazino[1,2-a]quinoxalin-1-one]
> 6.00		CC(=O)NCC1CN(c2ccc(C(F)(F)F)cc2)c2ccc(C3CC3)nc2O1 (single isomer, unassigned) [81-En2, (R)- or (S)-N-((6-cyclopropyl-1-(4-(trifluoromethyl)phenyl)-2,3-dihydro-1H-pyrido[2,3-b][1,4]oxazin-3-yl)methyl)acetamide]
> 6.00		CC(=O)NCC1CN(c2ccc(C(F)(F)F)cc2)c2ccc(N(C)C)nc2O1 (single isomer, unassigned) [87-En2, (R)- or (S)-N-((6-(dimethylamino)-1-(4-(trifluoromethyl)phenyl)-2,3-dihydro-1H-pyrido[2,3-b][1,4]oxazin-3-yl)methyl)acetamide]
	> 6.00	O=C(O)C1CCN2c3ncccc3N(c3ccc(C(F)(F)F)cc3)CC2C1 (single isomer, unassigned) [96A, (cis)- or (trans)-5-(4-(trifluoromethyl)phenyl)-6,6a,7,8,9,10-hexahydro-5H-dipyrido[1,2-a:3′,2′-e]pyrazine-8-carboxylic acid]
	5.00 to 6.00	CC(=O)NCC1CN(c2ccc(C(F)(F)F)cc2)c2ccc(C#N)nc2O1 (single isomer, unassigned) [99-En1 or 99-En2, (R)- or (S)—N-((6-cyano-1-(4-(trifluoromethyl)phenyl)-2,3-dihydro-1H-pyrido[2,3-b][1,4]oxazin-3-yl)methyl)acetamide]
> 6.00		FC(F)(F)c1ccc(N2CC3CC(c4nnn[nH]4)CCN3c3ccccc32)cc1 (single isomer, unassigned) [121-D2, 8-(1H-tetrazol-5-yl)-5-(4-(trifluoromethyl)phenyl)-6,6a,7,8,9,10-hexahydro-5H-pyrido[1,2-a]quinoxaline]
5.00 to 6.00		FC(F)(F)c1ccc(N2CC3CC(c4nnn[nH]4)CCN3c3ccccc32)cc1 (single isomer, unassigned) [121-D3, 8-(1H-tetrazol-5-yl)-5-(4-(trifluoromethyl)phenyl)-6,6a,7,8,9,10-hexahydro-5H-pyrido[1,2-a]quinoxaline]
> 6.00		FC(F)(F)c1ccc(N2CC3CC(c4nnn[nH]4)CCN3c3ccccc32)cc1 (single isomer, unassigned) [121-D4, 8-(1H-tetrazol-5-yl)-5-(4-(trifluoromethyl)phenyl)-6,6a,7,8,9,10-hexahydro-5H-pyrido[1,2-a]quinoxaline]
	> 6.00	CC(=O)NCC1CN(c2ccc(C(F)(F)F)cc2)c2ccc(Br)nc2O1 (single isomer, unassigned) [compound 122, (R)- or (S)—N-((6-bromo-1-(4-(trifluoromethyl)phenyl)-2,3-dihydro-1H-pyrido[2,3-b][1,4]oxazin-3-yl)methyl)acetamide]
	> 6.00	C=CC(=O)N1CCN2c3ncccc3N(c3ccc(C(F)(F)F)cc3)CC2C1 (stereo not shown) [28-En1, 1-(5-(4-(trifluoromethyl)phenyl)-5,6,6a,7,9,10-hexahydro-8H-pyrazino[1,2-a]pyrido[3,2-e]pyrazin-8-yl)prop-2-en-1-one]
> 6.00		C=CC(=O)N1CCN2c3ncccc3N(c3ccc(C(F)(F)F)cc3)CC2C1 (stereo not shown) [28-En2, 1-(5-(4-(trifluoromethyl)phenyl)-5,6,6a,7,9,10-hexahydro-8H-pyrazino[1,2-a]pyrido[3,2-e]pyrazin-8-yl)prop-2-en-1-one]

SMILES	pIC50	pIC50 (Homo sapiens, HEK-293T, 24 h)
C=CC(=O)N1CCN2C(C1)CN(c1ccc(C(F)(F)F)cc1)C1CCC12 (single isomer, unassigned) [42(Dia1), 1-(3-(4-(trifluoromethyl)phenyl)decahydro-6H-cyclobuta[e]pyrazino[1,2-a]pyrazin-6-yl)prop-2-en-1-one]		> 6.00
C=CC(=O)N1CCN2C(C1)CN(c1ccc(C(F)(F)F)cc1)C1CCC12 (single isomer, unassigned) [42(Dia2), 1-(3-(4-(trifluoromethyl)phenyl)decahydro-6H-cyclobuta[e]pyrazino[1,2-a]pyrazin-6-yl)prop-2-en-1-one]	> 6.00	
